Laboratory results as given in the supplement of paper PMC5412046.
Where a name gives a salt, the structure may show the parent alone.

Columns and labels:
[1] = tested on: SB.mhdgc-1; experiment: viability at highest tested concentration (MAXR) relative to DMSO; higher = less cytotoxic; conditions: SB.mhdgc-1 (hereditary c.1380delA CDH1 gastric cancer)
How it was run: (§1)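 Viability values are normalised to DMSO and given either at the highest concentration or as trapezoidal area under the curve. The assay used 500 hereditary or sporadic patient-derived gastric cancer cells in 5 μL medium per 1536 well, dosed by pintool with 23 nL of compound in DMSO at 11 threefold-diluted concentrations. CellTiter-Glo was added 48 h later for 30 min at room temperature, followed by luminescence reading on a ViewLux.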

[2] = tested on: SB.msgc-1; experiment: as above; conditions: SB.msgc-1 (sporadic gastric cancer)
How it was run: as §1

[3] = tested on: SB.mhdgc-1; experiment: area under the dose-response curve of % viability (trapezoidal, 11 doses) (% viability x log10 concentration); higher = less cytotoxic; conditions: SB.mhdgc-1 (hereditary c.1380delA CDH1 gastric cancer)
How it was run: as §1

[4] = tested on: SB.msgc-1; experiment: as above; conditions: SB.msgc-1 (sporadic gastric cancer)
How it was run: as §1

SMILES	viability [1]	viability [2]	area under the dose-response curve [3]	area under the dose-response curve [4]
CC(C)Cc1ccc(C(C)C(=O)O)cc1 (configuration not stated) [Ibuprofen lysine] (top concentration 23.0415 µM)	129%	81.2%	508	408
CC(C)(N)C(=O)N[C@H](COCc1ccccc1)C(=O)N1CCC2(CC1)CN([S+](C)(=O)[O-])c1ccccc12 [Ibutamoren mesilate] (top concentration 46.0829 µM)	59.6%	107%	473	585
CCCCCCCN(CC)CCCC(O)c1ccc(NS(C)(=O)=O)cc1.CCCCCCCN(CC)CCCC(O)c1ccc(NS(C)(=O)=O)cc1.O=C(O)/C=C/C(=O)O (configuration not stated) [Ibutilide fumarate] (top concentration 46.0829 µM)	37.1%	64.3%	523	569
COC1=CC=C(C=C1)C/2=C(OC3O[C@@H](C)[C@H](O)[C@@H](O)[C@H]3O)/C(=O)C4=C(O2)C(=C(OC5O[C@H](CO)[C@@H](O)[C@H](O)[C@H]5O)C=C4O)CC=C(C)C (some centres not stated) [Icariin] (top concentration 46.0829 µM)	13.3%	31.4%	475	497
COC1=CC=C(C=C1)/C2=C(O)/C(=O)C3=C(O)C=C(O)C(=C3O2)CC=C(C)C [Icaritin] (top concentration 46.0829 µM)	26%	20.8%	476	506
CC(=O)[C@]1(O)Cc2c(O)c3c(c(O)c2[C@@H](O[C@H]2C[C@H](N)[C@H](O)[C@H](C)O2)C1)C(=O)c1ccccc1C3=O [Idarubicin hydrochloride] (top concentration 46.0829 µM)	2.79%	2.05%	319	372
COC\1=C(/OC)C(=O)\C(=C(C)/C1=O)CCCCCCCCCCO [Idebenone] (top concentration 46.0829 µM)	103%	101%	566	532
OC[C@H]1O[C@H](C[C@@H]1O)N2\C=C(\I)C(=O)NC2=O [Idoxuridine] (top concentration 46.0829 µM)	115%	108%	586	557
OC1=CC=C(C=C1)C/2=C/C3=C(OC2)C=C(O)C=C3 [Idronoxil] (top concentration 46.0829 µM)	87.5%	85%	539	519
O=P1(NCCCl)OCCCN1CCCl (configuration not stated) [Ifomide] (top concentration 46.0829 µM)	48.3%	39%	350	427
COc1cc(C(C)=O)ccc1OCCCN1CCC(c2noc3cc(F)ccc23)CC1 [Iloperidone] (top concentration 46.0829 µM)	50.2%	84.2%	502	510
Cc1ccc(NC(=O)c2ccc(CN3CCN(C)CC3)cc2)cc1Nc1nccc(-c2cccnc2)n1 [Imatinib] (top concentration 46.0829 µM)	62.3%	80.2%	478	504
NC1=NC(=O)N2CC12 (configuration not stated) [Imexon] (top concentration 46.0829 µM)	110%	121%	571	545
CC(C)Cn1cnc2c(N)nc3ccccc3c21 [Imiquimod] (top concentration 46.0829 µM)	42.7%	44.5%	439	511
CC1Cc2ccccc2N1NC(=O)c1ccc(Cl)c([S+](N)(=O)[O-])c1 (configuration not stated) [Indapamide] (top concentration 46.0829 µM)	112%	96.4%	597	542
O=C(Nc1ccncc1)C(=O)c1cn(Cc2ccc(Cl)cc2)c2ccccc12 [Indibulin] (top concentration 46.0829 µM)	70.3%	34.1%	468	398
CC(C)(C)NC(=O)[C@@H]1CN(Cc2cccnc2)CCN1C[C@@H](O)C[C@@H](Cc1ccccc1)C(=O)N[C@H]1c2ccccc2C[C@H]1O.O=S(=O)(O)O [Indinavir] (top concentration 46.0829 µM)	37.1%	52.7%	347	473
CC(=O)N(C)c1cccc(-c2ccnc3c(C(=O)c4cccs4)cnn23)c1 [Indiplon] (top concentration 46.0829 µM)	101%	64.2%	571	489
O=C1Nc2ccccc2/C1=C1\Nc2ccccc2C1=O [Indirubin] (top concentration 46.0829 µM)	48%	57.6%	345	473
COc1ccc2c(c1)c(CC(=O)O)c(C)n2C(=O)c1ccc(Cl)cc1 [Indomethacin] (top concentration 46.0829 µM)	45%	41.7%	412	386
Cn1cc(C[C@@H](N)C(=O)O)c2ccccc21 [Indoximod] (top concentration 23.0415 µM)	125%	84%	629	471
C/C=C(/C)C(=O)O[C@H]1C(C)=C[C@]23C(=O)[C@@H](C=C(CO)[C@@H](O)[C@]12O)[C@H]1[C@@H](C[C@H]3C)C1(C)C [Ingenol mebutate] (top concentration 46.0829 µM)	85%	52.2%	433	372
NC(=O)c1ccc(I)c([N+](=O)[O-])c1 [Iniparib] (top concentration 46.0829 µM)	36.6%	81.8%	583	474
